Row | Structure (SMILES) | melting point
1 | CC(=O)N[C@H]1C[S@+]([O-])[C@@H](c2ccccc2)N(c2ccccc2)C1=O [Example 1b, N-[(1S,2S,5R)-1,4-dioxo-2,3-diphenyl-1λ^4,3-thiazinan-5-yl]acetamide] | 176 to 179 °C
2 | O=C1c2ccccc2[S+]([O-])C(c2ccccc2)N1c1ccccc1 (centres unmarked) [Example 1c, 2,3-diphenyl-2,3-dihydro-4H-1,3-benzothiazin-4-one 1-oxide] | 208 to 209 °C
3 | O=C1c2cccnc2[S+]([O-])C(c2ccccc2)N1c1ccccc1 (centres unmarked) [Example 1d, 2,3-diphenyl-2,3-dihydro-4H-pyrido[3,2-e]-[1,3]thiazin-4-one 1-oxide] | 177 to 179 °C
4 | O=C1CC2(CC2)C[S+]([O-])C(c2ccccc2)N1c1ccccc1 (centres unmarked) [Example 1e, 6,7-diphenyl-5λ^4-thia-7-azaspiro[2.6]nonane-5,8-dione] | 193 to 194 °C
5 | O=C1CCS(=O)(=O)C(c2ccccc2)N1c1ccccc1 (centres unmarked) [Example 2a, 2,3-diphenyl-2,3,5,6-tetrahydro-4H-1,3-thiazin-4-one 1,1-dioxide] | 145 to 148 °C
6 | CC(=O)N[C@H]1CS(=O)(=O)[C@@H](c2ccccc2)N(c2ccccc2)C1=O [Example 2b, N-[(2S,5R)-1,1,4-trioxo-2,3-diphenyl-1λ^6,3-thiazinan-5-yl]acetamide] | 170 to 194 °C (dec.)
7 | O=C1c2ccccc2S(=O)(=O)C(c2ccccc2)N1c1ccccc1 (centres unmarked) [Example 2c, 2,3-diphenyl-2,3-dihydro-4H-1,3-benzothiazin-4-one 1,1-dioxide] | 163 to 165 °C
8 | O=C1CC2(CC2)CS(=O)(=O)C(c2ccccc2)N1c1ccccc1 (centres unmarked) [Example 2e, 6,7-diphenyl-5?^6-thia-7-azaspiro[2.6]nonane-5,5,8-trione] | 186.6 to 187.7 °C (dec.)
